This passage reports solubility results from patent US9579385B2, “Ophthalmic compositions comprising polyvinyl caprolactam-polyvinyl acetate-polyethylene glycol graft copolymers” (Allergan, Inc., priority 2011, dated 2017).

This data set is described as follows: Bimatoprost solubility in formulation vehicles with different solubilizers. It counts as physicochemical. To be noted: for solubility at 8 weeks: measured at 8 weeks; for solubility at 1 week: formulation vehicle with 1% SOLUPLUS (PCA-PVA-PEG), vehicle with 1% SOLUPLUS (PCA-PVA-PEG), measured at 1 week only. From the text: Table 1 summarizes solubility of bimatoprost in vehicles with 5 different solubilizers over a range of temperatures.

Values after ≈ are worked out from the molar mass of the structure shown.

As to `CCNC(=O)CCC/C=C\C[C@@H]1[C@@H](/C=C/[C@@H](O)CCc2ccccc2)[C@H](O)C[C@@H]1O` [Bimatoprost], the solubility at 8 weeks runs as follows: (formulation vehicle with 1% POE 40 Stearate, aqueous with cosolvent or surfactant or cyclodextrin, vehicle with 1% POE 40 Stearate, 5 °C) 1270 µg/mL (≈ 3.05 mM); (formulation vehicle with 1% POE 40 Stearate, aqueous with cosolvent or surfactant or cyclodextrin, vehicle with 1% POE 40 Stearate, 25 °C) 1210 µg/mL (≈ 2.92 mM); (formulation vehicle with 1% POE 40 Stearate, aqueous with cosolvent or surfactant or cyclodextrin, vehicle with 1% POE 40 Stearate, 40 °C) 1150 µg/mL (≈ 2.76 mM); (formulation vehicle with 1% Polysorbate 20, aqueous with cosolvent or surfactant or cyclodextrin, vehicle with 1% Polysorbate 20, 5 °C) 1240 µg/mL (≈ 2.99 mM); (formulation vehicle with 1% Polysorbate 20, aqueous with cosolvent or surfactant or cyclodextrin, vehicle with 1% Polysorbate 20, 25 °C) 1180 µg/mL (≈ 2.83 mM); (formulation vehicle with 1% Polysorbate 20, aqueous with cosolvent or surfactant or cyclodextrin, vehicle with 1% Polysorbate 20, 40 °C) 1050 µg/mL (≈ 2.53 mM). Moreover, the solubility at 8 weeks reads like this: (formulation vehicle with 1% Polysorbate 80, aqueous with cosolvent or surfactant or cyclodextrin, vehicle with 1% Polysorbate 80, 5 °C) 1680 µg/mL (≈ 4.04 mM); (formulation vehicle with 1% Polysorbate 80, aqueous with cosolvent or surfactant or cyclodextrin, vehicle with 1% Polysorbate 80, 25 °C) 1520 µg/mL (≈ 3.67 mM); (formulation vehicle with 1% Polysorbate 80, aqueous with cosolvent or surfactant or cyclodextrin, vehicle with 1% Polysorbate 80, 40 °C) 1460 µg/mL (≈ 3.51 mM); (formulation vehicle with 1% SOLUTOL HS 15, aqueous with cosolvent or surfactant or cyclodextrin, vehicle with 1% SOLUTOL HS 15, 5 °C) 1500 µg/mL (≈ 3.61 mM); (formulation vehicle with 1% SOLUTOL HS 15, aqueous with cosolvent or surfactant or cyclodextrin, vehicle with 1% SOLUTOL HS 15, 25 °C) 1320 µg/mL (≈ 3.18 mM); (formulation vehicle with 1% SOLUTOL HS 15, aqueous with cosolvent or surfactant or cyclodextrin, vehicle with 1% SOLUTOL HS 15, 40 °C) 1240 µg/mL (≈ 2.98 mM). The molecule further returned a solubility at 1 week (aqueous with cosolvent or surfactant or cyclodextrin, 5 °C) of 427 µg/mL (≈ 1.03 mM); a solubility at 1 week (aqueous with cosolvent or surfactant or cyclodextrin, 25 °C) of 3510 µg/mL (≈ 8.45 mM); a solubility at 1 week (aqueous with cosolvent or surfactant or cyclodextrin, 40 °C) of 4750 µg/mL (≈ 11.4 mM).

Usually solubility stands for the dissolved amount per volume that the medium holds. Read a low solubility as a poorly soluble substance.
